Reference: US20230255939A1, “Antimicrobial Agent for Non-Human Animal” (ISHIHARA SANGYO KAISHA, LTD, priority 2020, published 2023)

Tested on: Malassezia pachydermatis (ATCC14522 strain)
Assay: Malassezia otitis externa effect test (dog) (Test Example 3)
Assay type: in vivo, dog (Beagle)
Set-up: Total score (redness, earwax, itching, rash) Immediately before treatment / Total score (redness, earwax, itching, rash) 7 Days after treatment: scale not given here
Details: for Microbial count (cfu/ml) 7 Days after treatment: 500 ppm agent solution for 1 minute; for Microbial count (cfu/ml) Immediately before treatment: baseline before 500 ppm agent solution; for Total score (redness, earwax, itching, rash) 7 Days after treatment: 5 mL of 500 ppm agent solution for 1 minute; for Improvement rate (%) of microbial count / Improvement rate (%) of symptom total score: 500 ppm for 1 minute, 7 days after treatment; for Total score (redness, earwax, itching, rash) Immediately before treatment: baseline 7 days after inoculation, before 500 ppm agent solution
Procedure: Test Example 3: Malassezia Otitis Externa Effect Test (Dog) Test Variety: Beagle (19 to 20-Month-Old)
Test Microbial Strain: Malassezia Pachydermatis (ATCC14522 Strain)
A colony of the Malassezia microbe pre-cultured (7 days, 30° C.) on a Sabouraud agar medium was suspended in sterilized physiological saline (microbial concentration of 1.0 × 10^6 cells/mL), and 0.1 mL of the resulting suspension was inoculated into both ears of the test animal. 7 Days after the inoculation, both ears were filled with 5 mL of an agent solution (sterilized physiological saline solution supplemented with 5% DMSO) prepared to have a concentration of the test compound of 500 ppm, and after 1 minute, thoroughly washed with sterilized physiological saline solution.
At the same time, the number of the Malassezia microbe present inside the ears of the sample was also investigated by the following method.
The surface of the ear canal was scraped three times using a cotton swab to collect the microbe, and the collected microbe was suspended in 1 mL of PBS (containing 8 g of sodium chloride, 2.9 g of disodium hydrogen phosphate, 0.2 g of potassium chloride, and 0.2 g of potassium dihydrogen phosphate in 1000 mL) supplemented with 1% v/v of Tween80 (polyoxyethylene sorbitan monooleate: manufactured by Kanto Chemical Co., Ltd.) together with the cotton swab. The resulting suspension was serially diluted 10-fold with the PBS, and 0.1 mL thereof was applied to a CHROMagar Malassezia/Candida medium (trade name; peptone, special enzyme substrate mixture, chloramphenicol, olive oil, agar) and cultured at 30° C. for 4 days. After that, the colonies having a pink to purple color were counted, the microbial count score was calculated, and the improvement rate was determined.

SMILES	Microbial count (cfu/ml) 7 Days after treatment (left ear canal swab) [cfu/ml]	Microbial count (cfu/ml) Immediately before treatment (left ear canal swab)	Total score (redness, earwax, itching, rash) 7 Days after treatment (left ear)	Improvement rate (%) of microbial count (left ear) [%]	Improvement rate (%) of symptom total score (left ear) [%]	Total score (redness, earwax, itching, rash) Immediately before treatment (left ear)	Microbial count (cfu/ml) 7 Days after treatment (right ear canal swab) [cfu/ml]	Microbial count (cfu/ml) Immediately before treatment (right ear canal swab)	Total score (redness, earwax, itching, rash) 7 Days after treatment (right ear)	Improvement rate (%) of microbial count (right ear) [%]	Improvement rate (%) of symptom total score (right ear) [%]	Total score (redness, earwax, itching, rash) Immediately before treatment (right ear)
Cc1ccc(-c2nc(C#N)n(O)c2Cl)cc1 [Compound No. 9, 5-chloro-1-hydroxy-4-(4-methylphenyl)-1H-imidazole-2-carbonitrile]	20	1,100 cfu/ml	1	98.2	67	3	30	1,600 cfu/ml	1	98.1	67	3
Cc1cc(-c2nc(C#N)[nH]c2Cl)ccc1Cl [Compound No. 7, 5-chloro-4-(4-chloro-3-methylphenyl)-1H-imidazole-2-carbonitrile]	20	480 cfu/ml	0	95.8	100	3	30	160 cfu/ml	0	81.3	100	3
